According to US8063225B2, “Tricyclic compound derivatives useful in the treatment of neoplastic diseases, inflammatory disorders and immunomodulatory disorders” (Chembridge Corporation, priority 2006, dated 2011):

How the values were obtained:
[1] = target: T1, IGF1R tyrosine kinase (Homo sapiens, UniProt P08069); test: IGF1R tyrosine kinase assay (Kinase-Glo ATP depletion or PT66/PT100 AlphaScreen); conditions: biochemical tyrosine kinase assay
T1 construct: 6×His- or GST-tagged kinase domain fragments of the corresponding RTKs expressed in baculovirus system; host or cells: baculovirus system
T1 sequence (P08069 999-1274 limits assumed): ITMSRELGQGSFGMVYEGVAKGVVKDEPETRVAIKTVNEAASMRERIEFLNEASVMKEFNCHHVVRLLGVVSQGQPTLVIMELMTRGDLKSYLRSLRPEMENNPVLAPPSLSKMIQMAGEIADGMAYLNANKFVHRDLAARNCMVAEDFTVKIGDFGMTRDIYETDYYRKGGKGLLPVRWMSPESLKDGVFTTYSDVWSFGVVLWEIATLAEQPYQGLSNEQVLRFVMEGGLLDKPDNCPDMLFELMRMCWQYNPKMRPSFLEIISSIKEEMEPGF
Description: (§1) To determine inhibition of several tyrosine kinases, such as IGF1R, InsR, Alk, TrkA and Jak2, kinase assays are conducted using either Kinase-Glo (Promega) or AlphaScreen (PerkinElmer) kinase assay platforms. The Kinase-Glo Luminescent Kinase Assay is a homogeneous method for measuring kinase activity by determining the amount of ATP remaining after a kinase reaction. The luminescent signal is proportional to the amount of ATP and inversely proportional to the amount of kinase activity. Tyrosine kinase PT66 AlphaScreen Assay is a high-sensitivity homogeneous, anti-phosphotyrosine antibody-mediated luminescent proximity method measuring, incorporation of phosphate in synthetic poly(Glu-Tyr) substrate. The kinase preparations used consist of purified recombinant, 6×His- or GST-tagged kinase domain fragments of the corresponding RTKs expressed in baculovirus system.
(§2) The IGF1R tyrosine kinase is assayed in Kinase-Glo ATP depletion assay using the synthetic polymer poly(Glu-Tyr, 4:1) (Sigma Chemicals) as a phosphoacceptor substrate. Each reaction mixture consists of a total volume of 10 μl and contains 40 ng of the enzyme, 5 μg of poly(Glu-Tyr), 10 μM of ATP and variable concentrations of test compounds. The mixtures also contain 50 mM Tris-HCl, pH 7.5; 5 mM MgCl2; 5 mM MnCl2; 2 mM DTT and 0.01% Tween 20. The reaction mixtures are incubated at 37° C. for 60 minutes and residual concentration of ATP in the mixture is determined by adding luciferase-containing Kinase-Glo (Promega) development reagent and counting luminescence levels using Fusion Universal Microplate Analyzer (PerkinElmer). Tested compounds are dissolved in dimethyl sulfoxide to a stock concentration of 10 mM and are typically evaluated in the assay at eight concentrations in 1 nM to 20 μM range, each in quadruplicate. […] IC50 values are derived by non-linear regression analysis using Prism 3.0 software (Graphpad Software). Other tyrosine kinases are assayed according to the same protocol after titrating amount of the enzyme to provide optimal signal-to-noise ratio and no more than 30% of total ATP consumption in the reaction conditions used.
(§3) The IGF1R tyrosine kinase is assayed in Phosphotyrosine (PT66 or PT 100) AlphaScreen chemiluminescent assay (PerkinElmer) according to the manufacturerer's recommendations. Each kinase reaction mixture consists of a total volume of 15 μl and contains 0.1-1 ng of the enzyme, 7 ng of biotinylated poly(Glu-Tyr) (Cis-Bio), 10 μM of ATP and variable concentrations of test compounds. The mixtures also contain 50 mM Tris-HCl, pH 7.5; 5 mM MgCl2; 5 mM MnCl2; 2 mM DTT and 0.01% Tween 20. The reaction mixtures are incubated at room temperature for 30 minutes. Ten (10) μl of the mixture of […] and donor beads (as supplied by the manufacturer) is then added to the reaction and the incubation is continued for an additional 60 minutes.

[2] = target: T2, InsR (Homo sapiens, UniProt P06213); test: Tyrosine kinase assay (Kinase-Glo or AlphaScreen), InsR; conditions: biochemical tyrosine kinase assay
T2 construct: 6×His- or GST-tagged kinase domain fragments of the corresponding RTKs expressed in baculovirus system; host or cells: baculovirus system
T2 sequence (P06213 1023-1298 limits assumed, species assumed): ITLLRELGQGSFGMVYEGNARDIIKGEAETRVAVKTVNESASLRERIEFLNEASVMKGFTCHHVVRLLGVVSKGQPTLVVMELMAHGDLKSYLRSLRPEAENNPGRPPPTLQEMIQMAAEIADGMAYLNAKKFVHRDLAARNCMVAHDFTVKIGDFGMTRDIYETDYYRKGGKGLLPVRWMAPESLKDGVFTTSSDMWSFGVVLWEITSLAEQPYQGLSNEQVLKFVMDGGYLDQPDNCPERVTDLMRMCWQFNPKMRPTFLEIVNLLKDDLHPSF
Description: as §1, §2, §3

[3] = target: T3, Alk (Homo sapiens, UniProt Q9UM73); test: Tyrosine kinase assay (Kinase-Glo or AlphaScreen), Alk; conditions: biochemical tyrosine kinase assay
T3 construct: 6×His- or GST-tagged kinase domain fragments of the corresponding RTKs expressed in baculovirus system; host or cells: baculovirus system
T3 sequence (Q9UM73 1116-1392 limits assumed, species assumed): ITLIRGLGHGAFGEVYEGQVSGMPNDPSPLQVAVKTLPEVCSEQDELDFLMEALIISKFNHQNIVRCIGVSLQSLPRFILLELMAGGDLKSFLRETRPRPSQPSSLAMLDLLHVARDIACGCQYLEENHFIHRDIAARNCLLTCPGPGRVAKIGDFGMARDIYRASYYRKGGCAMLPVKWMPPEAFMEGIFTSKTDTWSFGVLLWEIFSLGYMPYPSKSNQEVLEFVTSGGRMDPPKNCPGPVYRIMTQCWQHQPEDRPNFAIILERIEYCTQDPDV
Description: as §1, §2, §3

[4] = target: T4, Jak2 (Homo sapiens, UniProt O60674); test: Tyrosine kinase assay (Kinase-Glo or AlphaScreen), Jak2; conditions: biochemical tyrosine kinase assay
T4 construct: 6×His- or GST-tagged kinase domain fragments of the corresponding RTKs expressed in baculovirus system; host or cells: baculovirus system
T4 sequence (O60674 849-1124 limits assumed, species assumed): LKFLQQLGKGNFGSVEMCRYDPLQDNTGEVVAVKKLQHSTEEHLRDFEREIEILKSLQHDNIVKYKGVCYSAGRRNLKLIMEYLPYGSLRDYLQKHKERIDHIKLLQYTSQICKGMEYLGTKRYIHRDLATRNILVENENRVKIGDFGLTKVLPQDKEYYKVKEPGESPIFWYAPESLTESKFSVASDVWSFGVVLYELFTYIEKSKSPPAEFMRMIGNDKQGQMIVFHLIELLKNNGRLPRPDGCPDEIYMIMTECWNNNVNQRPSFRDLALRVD
Description: as §1, §2, §3

[5] = tested on: Ba/F3; test: Cell proliferation inhibition, Cell Titer-Glo, Ba/F3; type: cell-based; conditions: Mus musculus, BaF3; cell proliferation assay, Ba/F3 cells
Source text: (§4) IGF1R and other tyrosine kinase inhibitors can inhibit the proliferation of certain cancer cell lines indicating their possible therapeutic utility for treating the corresponding cancer types. Cancer cell lines of interest and control normal lines, including CHO, HEK293, BA/F3, COLO205, PC3, DU145, MCF7, Panc1, ACHN, Hep G2, H460, K562, TT, U87-MG, CAOV-3, SK-MEL5, Karpas 299 and human multiple myeloma cell lines H929, MM1s, MM1r, UTMC2, CPM2, KMS11, My5, KMS12PE, My7, JJN3, KMS18, U266, SKMM2, RPMI-8226 are plated in white, clear-bottomed 384-well cell culture plates at 2500-5000 cells per well and supplied with dilutions of tested compounds After a desired period of time (typically 3 days), the number of viable cells is quantitated by using Cell Titer-Glo Luminescent Cell Viability Assay (Promega), a cell proliferation assay system based on detection of total amount of ATP present as a measure of cell metabolic activity. The plated cells are mixed with the Cell Titer-Glo developing reagent and counted in a luminescence multiwell plate reader according to the standard manufacturer's protocol to generate IC50 curves for cell proliferation inhibition. Results are typically reported as percent of growth (% viability =(OD72h(compound)−ODday0))/(OD72h(no compound)−ODday0). Alternatively, viable cells are quantitated by using the conventional colorimetric MTT assay. The MTT assay is based on the cleavage of the yellow tetrazolium salt MTT to purple formazan crystal by metabolic active cells. The formazan is then solubilized, and the concentration determined by optical density at 570 nm. The cells plated and incubated with a compound as described above are supplemented with the solution of MTT and incubated for 2-3 hours. The growth medium is removed and dimethyl sulfoxide is added into each well to dissolve the formazan. The absorbance is measured on an ELISA plate reader with a test wavelength of 570 nm and a background subtraction wavelength of 630 nm to obtain sample signal (OD570-OD630). […] The results are reported in terms of IC50 value for a particular compound and a cell line in the standard 3-day proliferation assay using Cell Titer-Glo. […] The results are reported in terms of IC50 value for a particular compound and a cell line in the standard 3-day proliferation assay using MTT assay.

[6] = tested on: Karpas-299; test: Cell proliferation inhibition, Cell Titer-Glo, Karpas-299; type: cell-based; conditions: Homo sapiens; cell proliferation assay, Karpas-299 cells
Source text: as §4

[7] = tested on: K562; test: Cell proliferation inhibition, Cell Titer-Glo, K562; type: cell-based; conditions: Homo sapiens; cell proliferation assay, K562 cells
Source text: as §4

IC50 [1] | IC50 [2] | IC50 [3] | IC50 [4] | IC50 [5] | IC50 [6] | IC50 [7] | Compound
< 0.5 µM | 0.5 to 5 µM | 0.5 to 5 µM | 0.5 to 5 µM | > 15 µM | > 15 µM | > 15 µM | CN(C)CCN1CCC(N2C(=O)c3cc4nc(-c5c(NC[C@@H](O)COc6c(F)ccc(Cl)c6F)cc[nH]c5=O)[nH]c4cc3C2=O)CC1 [compound 128]
5 to 15 µM | 5 to 15 µM | 0.5 to 5 µM | 0.5 to 5 µM | > 15 µM | > 15 µM | > 15 µM | CN1CCC(N2C(=O)c3cc4nc(-c5c(NC[C@@H](O)COc6cccc(N7CCOCC7)c6)ccnc5O)[nH]c4cc3C2=O)CC1 [compound 53]
5 to 15 µM | 5 to 15 µM | 5 to 15 µM | 0.5 to 5 µM | > 15 µM | > 15 µM | > 15 µM | CN1CCC(N2C(=O)c3cc4nc(-c5c(NC[C@@H](O)COc6cccnc6)ccnc5O)[nH]c4cc3C2=O)CC1 [compound 70]
5 to 15 µM | 5 to 15 µM | > 15 µM | 5 to 15 µM | > 15 µM | > 15 µM | > 15 µM | CN1CCC(N2C(=O)c3cc4nc(-c5c(NN)ccnc5O)[nH]c4cc3C2=O)CC1 [compound 65]
0.5 to 5 µM | 0.5 to 5 µM | 0.5 to 5 µM | 0.5 to 5 µM | 5 to 15 µM | 0.5 to 5 µM | 5 to 15 µM | CN1CCC(N2C(=O)c3cc4nc(-c5c(NC[C@@H](O)Cn6ccc7c(C#N)cccc76)cc[nH]c5=O)[nH]c4cc3C2=O)CC1 [compound 112]
< 0.5 µM | 0.5 to 5 µM | 5 to 15 µM | > 15 µM | 5 to 15 µM | 5 to 15 µM | 5 to 15 µM | COc1cc(C)ccc1OC[C@H](O)CNc1ccnc(O)c1-c1nc2cc3c(cc2[nH]1)C(=O)N(C1CCN(C)CC1)C3=O [compound 54]
< 0.5 µM | < 0.5 µM | 0.5 to 5 µM | 0.5 to 5 µM | > 15 µM | > 15 µM | > 15 µM | CN1CCC(N2C(=O)c3cc4nc(-c5c(NC[C@@H](O)COc6cccc7c6OC(F)(F)C(F)O7)cc[nH]c5=O)[nH]c4cc3C2=O)CC1 (stereo partly shown) [compound 83]
0.5 to 5 µM | 5 to 15 µM | 0.5 to 5 µM | 5 to 15 µM | 5 to 15 µM | 5 to 15 µM | > 15 µM | CSCc1cc(C)cc(C)c1OC[C@H](O)CNc1cc[nH]c(=O)c1-c1nc2cc3c(cc2[nH]1)C(=O)N(C1CCN(C)CC1)C3=O [compound 81]
0.5 to 5 µM | 0.5 to 5 µM | 0.5 to 5 µM | 0.5 to 5 µM | > 15 µM | > 15 µM | > 15 µM | CN1CCC(N2C(=O)c3cc4nc(-c5c(NC[C@@H](O)Cn6cnc7ccccc76)ccnc5O)[nH]c4cc3C2=O)CC1 [compound 49]
0.5 to 5 µM | 0.5 to 5 µM | 5 to 15 µM | 0.5 to 5 µM | > 15 µM | > 15 µM | > 15 µM | Cc1ccc(OC[C@H](O)CNc2ccnc(O)c2-c2nc3cc4c(cc3[nH]2)C(=O)N(C2CCN(C)CC2)C4=O)cn1 [compound 69]
< 0.5 µM | 0.5 to 5 µM | 5 to 15 µM | 0.5 to 5 µM | > 15 µM | > 15 µM | > 15 µM | Cc1ccc(OC[C@H](O)CNc2ccnc(O)c2-c2nc3cc4c(cc3[nH]2)C(=O)N(C2CCN(C)CC2)C4=O)c(C)n1 [compound 68]
0.5 to 5 µM | 0.5 to 5 µM | > 15 µM | 0.5 to 5 µM | > 15 µM | 5 to 15 µM | 5 to 15 µM | O=C1c2cc3nc(-c4c(NC[C@@H](O)c5cccc(Cl)c5)cc[nH]c4=O)[nH]c3cc2C(=O)N1CCO [compound 43]
0.5 to 5 µM | 0.5 to 5 µM | 0.5 to 5 µM | 0.5 to 5 µM | 0.5 to 5 µM | 0.5 to 5 µM | 0.5 to 5 µM | Cc1ccc(Cl)cc1OC[C@@H](O)CNc1ccnc(O)c1-c1nc2cc3c(cc2[nH]1)C(=O)N(C1CCN(C)CC1)C3=O [compound 56]
< 0.5 µM | < 0.5 µM | 0.5 to 5 µM | 0.5 to 5 µM | 5 to 15 µM | 0.5 to 5 µM | > 15 µM | COc1ccc(OC[C@H](O)CNc2cc[nH]c(=O)c2-c2nc3c(C)c4c(cc3[nH]2)C(=O)N(C2CCN(C)CC2)C4=O)c(C)c1Cl [compound 138]
< 0.5 µM | < 0.5 µM | 0.5 to 5 µM | 0.5 to 5 µM | > 15 µM | > 15 µM | > 15 µM | Cc1c(Cl)cccc1OC[C@H](O)CNc1cc[nH]c(=O)c1-c1nc2cc3c(cc2[nH]1)C(=O)N(CC1CCN(CCO)CC1)C3=O [compound 119]
0.5 to 5 µM | 0.5 to 5 µM | 5 to 15 µM | 0.5 to 5 µM | > 15 µM | > 15 µM | 5 to 15 µM | Cc1cccc(OCC(O)CNc2cc[nH]c(=O)c2-c2nc3cc4c(cc3[nH]2)C(=O)N(C2CCN(C)CC2)C4=O)c1 (stereo not shown) [compound 105]
0.5 to 5 µM | 5 to 15 µM | 0.5 to 5 µM | 5 to 15 µM | > 15 µM | 5 to 15 µM | 5 to 15 µM | Cc1ccc(OC[C@H](O)CNc2cc[nH]c(=O)c2-c2nc3cc4c(cc3[nH]2)C(=O)N(C2CCN(C)CC2)C4=O)c(C(C)(C)C)c1 [compound 80]
0.5 to 5 µM | 5 to 15 µM | 0.5 to 5 µM | 0.5 to 5 µM | > 15 µM | > 15 µM | > 15 µM | CN1CCC(N2C(=O)c3cc4nc(-c5c(NC[C@@H](O)COc6ccc(C#N)c(Cl)c6)ccnc5O)[nH]c4cc3C2=O)CC1 [compound 77]
< 0.5 µM | 0.5 to 5 µM | 0.5 to 5 µM | 0.5 to 5 µM | > 15 µM | > 15 µM | > 15 µM | CN1CCC(N2C(=O)c3cc4nc(-c5c(NC[C@@H](O)COc6cccc7c6OC(F)C(F)(F)O7)cc[nH]c5=O)[nH]c4cc3C2=O)CC1 (stereo partly shown) [compound 82]
